In test [1] the target is T1, Fructose-bisphosphate aldolase, glycosomal (Trypanosoma brucei brucei) (UniProt P07752).
T1 sequence (whole entry): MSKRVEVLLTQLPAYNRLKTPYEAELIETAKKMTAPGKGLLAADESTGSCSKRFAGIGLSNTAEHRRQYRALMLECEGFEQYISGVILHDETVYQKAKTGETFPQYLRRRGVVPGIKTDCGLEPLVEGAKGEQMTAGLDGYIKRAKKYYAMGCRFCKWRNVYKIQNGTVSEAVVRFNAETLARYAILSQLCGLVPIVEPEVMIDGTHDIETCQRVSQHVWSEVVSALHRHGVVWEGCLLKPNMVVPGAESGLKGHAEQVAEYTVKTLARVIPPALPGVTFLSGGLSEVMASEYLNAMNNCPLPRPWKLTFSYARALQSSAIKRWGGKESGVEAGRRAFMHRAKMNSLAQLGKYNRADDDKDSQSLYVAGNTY
Description: Competitive inhibition of His-tagged recombinant Trypanosoma brucei fructose bis-phosphate aldolase expressed in Escherichia coli by double-reciprocal plot analysis.

Test [2] concerns the target T2, Fructose-bisphosphate aldolase A (Oryctolagus cuniculus, UniProt P00883).
T2 sequence (P00883 whole entry): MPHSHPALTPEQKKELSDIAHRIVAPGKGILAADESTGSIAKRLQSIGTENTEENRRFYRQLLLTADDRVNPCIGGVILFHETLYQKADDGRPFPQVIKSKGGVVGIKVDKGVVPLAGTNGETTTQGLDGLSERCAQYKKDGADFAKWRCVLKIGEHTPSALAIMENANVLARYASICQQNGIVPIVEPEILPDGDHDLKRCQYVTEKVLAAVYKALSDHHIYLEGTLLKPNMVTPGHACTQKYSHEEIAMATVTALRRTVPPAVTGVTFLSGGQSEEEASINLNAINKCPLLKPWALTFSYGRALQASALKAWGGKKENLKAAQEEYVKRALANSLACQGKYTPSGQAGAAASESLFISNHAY
Description: Inhibition of rabbit muscle FBA assessed as inhibition of FBP cleavage by spectrophotometry.

In test [3] the target is T3, Fructose-bisphosphate aldolase, glycosomal (Trypanosoma brucei brucei, UniProt P07752).
T3 sequence (P07752 whole entry): T1 sequence (whole entry)
Description: Inhibition of His-tagged recombinant Trypanosoma brucei fructose bis-phosphate aldolase expressed in Escherichia coli using FBP as substrate after 5 to 15 mins.

The source made the active and inactive calls. No cut-off for these calls is given here.

Usually IC50 stands for the point on the concentration scale where inhibition reaches its midpoint. With `CC[C@@](O)(COP(=O)(O)O)[C@@H](O)[C@H](O)[C@H](O)COP(=O)(O)O`, the “inhibition mode (competitive)” value in test [1] is “Active”. Further, the half-maximal inhibitory concentration (IC50) in test [2] was 244 µM; in test [3] it was 130 µM.
For the compound `CO[C@H](COP(=O)(O)O)[C@@H](O)[C@H](O)[C@H](O)COP(=O)(O)O`, in test [1], the “inhibition mode (competitive)” value was “Active”. Further, the 50% inhibitory concentration (IC50) amounted to 7.5 µM in test [2] and 2 µM in test [3].
Turning to `O=C(COP(=O)(O)O)[C@@H](O)[C@H](O)[C@H](O)COP(=O)(O)O` (mixture of isomers), the IC50 in test [2] came to 13 µM; in test [3], 10 µM.
As for `CCCCCO[C@H](COP(=O)(O)O)[C@@H](O)[C@H](O)[C@H](O)COP(=O)(O)O`, the “inhibition mode (competitive)” value in test [1] was “Active”. Besides, the results for the IC50 in test [2] and in test [3] were 157 µM and 117 µM, respectively.
As for `CCCCC[C@@](O)(COP(=O)(O)O)[C@@H](O)[C@H](O)[C@H](O)COP(=O)(O)O`, in test [1], the “inhibition mode (competitive)” value is “Active”. The IC50 in test [2] is 17 µM; in test [3], 15 µM.
Take `O=P(O)(O)OC[C@@H](O)[C@@H](O)[C@H](O)[C@H](O)COP(=O)(O)O`: the figures for the IC50 in test [2] and in test [3] were 8 µM and 9.4 µM, respectively.
In the case of `O=P(O)(O)OC[C@@H](O)[C@@H](O)[C@H](O)[C@@H](COP(=O)(O)O)OCCCc1ccccc1`, the “inhibition mode (competitive)” value in test [1] was “Active”. In addition, the IC50 in test [2] is 21 µM; in test [3], 31 µM.
Take `O=P(O)(O)OC[C@@H](O)[C@@H](O)[C@H](O)[C@@](O)(CCCc1ccccc1)COP(=O)(O)O`: in test [1], the “inhibition mode (competitive)” value is “Active”. Besides, the IC50 in test [2] was 137 µM; in test [3], 56 µM.
The corresponding values for `CCO[C@H](COP(=O)(O)O)[C@@H](O)[C@H](O)[C@H](O)COP(=O)(O)O` are “Active”, 64 µM and 51 µM.

The values are drawn from ChEMBL document CHEMBL2016560, “Mannitol Bis-phosphate Based Inhibitors of Fructose 1,6-Bisphosphate Aldolases” (ACS Med Chem Lett, 2011).
